Patent US8859580B2 (Boehringer Ingelheim International GmbH, priority 2007, dated 2014)

These compounds were tested against T1, 11β-HSD1 (Homo sapiens, UniProt P28845) (assay: In vitro inhibition of 11β-HSD1, HTRF detection of cortisol generated from cortisone by human liver microsomes). Conditions: 11β-HSD IC50 (nM), 1 hour at 37° C., pH 6.0, NADPH 200 μM, cortisone 80 nM, inhibition relative to carbenoxolone signal.
T1 construct: detecting cortisol generated from cortisterone by human liver microsomes; from tissue; host or cells: human liver microsomes
Type: biochemical
How it was run: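 Inhibition expressed against the carbenoxolone signal and fitted to IC50 curves. Readout: HTRF competition between microsomal cortisol and XL665-labelled cortisol for Eu-cryptate anti-cortisol antibody (typically 2 h), with emission ratio 665/615 calibrated to cortisol concentration.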

T1 sequence (P28845 whole entry): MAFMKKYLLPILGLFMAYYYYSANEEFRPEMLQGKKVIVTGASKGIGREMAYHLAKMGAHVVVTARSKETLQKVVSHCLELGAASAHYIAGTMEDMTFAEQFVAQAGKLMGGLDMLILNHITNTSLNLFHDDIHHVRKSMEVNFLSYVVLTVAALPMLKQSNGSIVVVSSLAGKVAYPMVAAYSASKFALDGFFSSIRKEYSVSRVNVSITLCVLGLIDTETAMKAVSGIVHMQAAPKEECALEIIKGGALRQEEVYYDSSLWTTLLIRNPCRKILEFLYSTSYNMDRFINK

SMILES	IC50 [nM]
COc1ccc2c(c1)C[C@@H]1N(C(=O)c3ccc4nc[nH]c4c3)CC[C@@]2(C)C1(C)C [Example 147, (3H-Benzoimidazol-5-yl)-[(2S,6R)-9-methoxy-6,11,11-trimethyl-1,2,5,6-tetrahydro-4H-2,6-methano-benzo[d]azocin-3-yl]-methanone]	1010
Cc1nc(-c2ccc3c(c2)[C@]2(C)CCN(C(=O)c4ccc5nc[nH]c5c4)[C@H](C3)[C@H]2C)no1 [Example 231, (3H-Benzoimidazol-5-yl)-[(2R,6R,11S)-6,11-dimethyl-8-(5-methyl-[1,2,4]oxadiazol-3-yl)-1,2,5,6-tetrahydro-4H-2,6-methano-benzo[d]azocin-3-yl]-methanone]	146
CC(=O)NCc1ccc2c(c1)CC1N(C(=O)c3ccc4nc[nH]c4c3)CCC2(C)C1(C)C (stereo not drawn) [Example 178, N-[3-(3H-Benzoimidazole-5-carbonyl)-6,11,11-trimethyl-1,2,3,4,5,6-hexahydro-2,6-methano-benzo[d]azocin-9-ylmethyl]-acetamide]	159
CCC12CCN(C(=O)c3ccc4nc[nH]c4c3)C(Cc3ccc(O)cc31)C2 (stereo not drawn) [Example 90, (3H-Benzoimidazol-5-yl)-(6-ethyl-8-hydroxy-1,2,5,6-tetrahydro-4H-2,6-methano-benzo[d]azocin-3-yl)-methanone]	468
CC1(C)[C@H]2Cc3ccc(O)cc3[C@]1(C)CCN2C(=O)c1ccc2nc[nH]c2c1 [Example 80, (3H-Benzoimidazol-5-yl)-[(2R,6S)-8-hydroxy-6,11,11-trimethyl-1,2,5,6-tetrahydro-4H-2,6-methano-benzo[d]azocin-3-yl]-methanone]	40
CC1(C)[C@H]2Cc3ccccc3[C@]1(C)CCN2C(=O)c1ccc(S(N)(=O)=O)cc1 [Example 342, 4-[(2R,6S)-6,11,11-Trimethyl-1,2,5,6-tetrahydro-4H-2,6-methano-benzo[d]azocine-3-carbonyl]-benzenesulfonamide]	373
CC(=O)c1cccc(C(=O)N2CC[C@@]3(C)c4ccccc4C[C@@H]2C3(C)C)c1 [Example 307, 1-{3-[(2R,6S)-6,11,11-Trimethyl-1,2,5,6-tetrahydro-4H-2,6-methano-benzo[d]azocine-3-carbonyl]-phenyl}-ethanone]	979
CC1(C)[C@H]2Cc3ccccc3[C@]1(C)CCN2C(=O)c1ccc(N)cc1 [Example 286, (4-Amino-phenyl)-[(2R,6S)-6,11,11-trimethyl-1,2,5,6-tetrahydro-4H-2,6-methano-benzo[d]azocin-3-yl]-methanone]	47
O=C(c1ccc2nc[nH]c2c1)N1CCC2(c3ccccc3)CC1Cc1ccc(O)cc12 (stereo not drawn) [Example 149, (3H-Benzoimidazol-5-yl)-(8-hydroxy-6-phenyl-1,2,5,6-tetrahydro-4H-2,6-methano-benzo[d]azocin-3-yl)-methanone]	374
CC1(C)[C@H]2Cc3c(O)cccc3[C@]1(C)CCN2C(=O)c1ccccn1 [Example 128, [(2R,6S)-10-Hydroxy-6,11,11-trimethyl-1,2,5,6-tetrahydro-4H-2,6-methano-benzo[d]azocin-3-yl]-pyridin-2-yl-methanone]	1290
CC1(C)[C@H]2Cc3c(O)cccc3[C@]1(C)CCN2C(=O)c1ccc(CN2CCCC2)cc1 [Example 120, [(2R,6S)-10-Hydroxy-6,11,11-trimethyl-1,2,5,6-tetrahydro-4H-2,6-methano-benzo[d]azocin-3-yl]-(4-pyrrolidin-1-ylmethyl-phenyl)-methanone]	3840
COc1ccc2c(c1-n1cccc1)[C@]1(C)CCN(C(=O)c3ccc4nc[nH]c4c3)[C@H](C2)[C@H]1C [Example 270, (3H-Benzoimidazol-5-yl)-[(2R,6R,11S)-8-methoxy-6,11-dimethyl-7-pyrrol-1-yl-1,2,5,6-tetrahydro-4H-2,6-methano-benzo[d]azocin-3-yl)-methanone]	99
CC12CCN(C(=O)c3ccc4nc[nH]c4c3)C(Cc3cc(C#N)ccc31)C2(C)C (stereo not drawn) [Example 96, 3-(1H-Benzoimidazole-5-carbonyl)-6,11,11-trimethyl-1,2,3,4,5,6-hexahydro-2,6-methano-benzo[d]azocine-9-carbonitrile]	95
COc1cc2c(cc1OC)C1(C)CCN(C(=O)c3ccc4nc[nH]c4c3)C(C2)C1(C)C (stereo not drawn) [Example 72, (3H-Benzoimidazol-5-yl)-(8,9-dimethoxy-6,11,11-trimethyl-1,2,5,6-tetrahydro-4H-2,6-methano-benzo[d]azocin-3-yl)-methanone]	148
CC1(C)[C@H]2Cc3c(F)cccc3[C@]1(C)CCN2C(=O)c1ccc2nc[nH]c2c1 [Example 140, (3H-Benzoimidazol-5-yl)-[(2R,6S)-10-fluoro-6,11,11-trimethyl-1,2,5,6-tetrahydro-4H-2,6-methano-benzo[d]azocin-3-yl]-methanone]	48
Cc1nc2c3c(ccc2o1)C[C@@H]1[C@@H](C)[C@@]3(C)CCN1C(=O)c1ccc2nc[nH]c2c1 [Example 300, (3H-Benzoimidazol-5-yl)-[(7R,11R,12S)-6,7,8,9,10,11-hexahydro-2,11,12-trimethyl-6,10-methano-oxazolo[4,5-h][3]benzazocin-8-yl]-methanone]	115
CC(=O)Nc1ccc2c(c1)CC1N(C(=O)c3ccc4nc[nH]c4c3)CCC2(C)C1(C)C (stereo not drawn) [Example 179, N-[3-(3H-Benzoimidazole-5-carbonyl)-6,11,11-trimethyl-1,2,3,4,5,6-hexahydro-2,6-methano-benzo[d]azocin-9-yl]-acetamide]	199
COc1ccc2c(c1[N+](=O)[O-])[C@]1(C)CCN(C(=O)c3ccc4nc[nH]c4c3)[C@H](C2)[C@H]1C [Example 261, (3H-Benzoimidazol-5-yl)-[(2R,6R,11S)-8-methoxy-6,11-dimethyl-7-nitro-1,2,5,6-tetrahydro-4H-2,6-methano-benzo[d]azocin-3-yl]-methanone]	47
CC(=O)c1ccc2c(c1)[C@]1(C)CCN(C(=O)c3ccc4nc[nH]c4c3)[C@H](C2)C1(C)C [Example 204, 1-[(2R,6S)-3-(3H-Benzoimidazole-5-carbonyl)-6,11,11-trimethyl-1,2,3,4,5,6-hexahydro-2,6-methano-benzo[d]azocin-8-yl]-ethanone]	27
CC1(C)[C@H]2Cc3ccccc3[C@]1(C)CCN2C(=O)c1cccc(S(N)(=O)=O)c1 [Example 343, 3-[(2R,6S)-6,11,11-Trimethyl-1,2,5,6-tetrahydro-4H-2,6-methano-benzo[d]azocine-3-carbonyl]-benzenesulfonamide]	1520
CN(C)C(=O)c1ccc(C(=O)N2CC[C@@]3(C)c4cccc(O)c4C[C@@H]2C3(C)C)cc1 [Example 37, 4-[(2R,6S)-10-Hydroxy-6,11,11-trimethyl-1,2,5,6-tetrahydro-4H-2,6-methano-benzo[d]azocine-3-carbonyl]-N,N-dimethyl-benzamide]	998
Cn1nnc2cc3c(cc21)[C@]1(C)CCN(C(=O)c2ccc4nc[nH]c4c2)[C@H](C3)C1(C)C [Example 257, (3H-Benzoimidazol-5-yl)-[(6R,10S)-5,6,7,8,9,10-hexahydro-1,10,12,12-tetramethyl-6,10-methano-triazolo[5,4-i][3]benzazocin-7-yl]-methanone]	209
CC1(C)[C@H]2Cc3c(O)cccc3[C@]1(C)CCN2C(=O)c1cncn1-c1ccccc1 [Example 218, [(2R,6S)-10-Hydroxy-6,11,11-trimethyl-1,2,5,6-tetrahydro-4H-2,6-methano-benzo[d]azocin-3-yl]-(3-phenyl-3H-imidazol-4-yl)-methanone]	2710
Cc1ccc2[nH]cc(C(=O)N3CC[C@@]4(C)c5cccc(O)c5C[C@@H]3C4(C)C)c2c1 [Example 248, [(2R,6S)-10-Hydroxy-6,11,11-trimethyl-1,2,5,6-tetrahydro-4H-2,6-methano-benzo[d]azocin-3-yl)-(5-methyl-1H-indol-3-yl)-methanone]	1510
CC12CCN(C(=O)c3ccc4nc[nH]c4c3)C(Cc3cc(C(N)=O)ccc31)C2(C)C (stereo not drawn) [Example 163, 3-(3H-Benzoimidazole-5-carbonyl)-6,11,11-trimethyl-1,2,3,4,5,6-hexahydro-2,6-methano-benzo[d]azocine-9-carboxylic acid amide]	249
CC1(C)[C@H]2Cc3c(O)cccc3[C@]1(C)CCN2C(=O)c1c[nH]c2ccccc12 [Example 118, [(2R,6S)-10-Hydroxy-6,11,11-trimethyl-1,2,5,6-tetrahydro-4H-2,6-methano-benzo[d]azocin-3-yl]-(1H-indol-3-yl)-methanone]	72
CC12CCN(C(=O)c3ccc4nc[nH]c4c3)C(Cc3cc(N)ccc31)C2(C)C (stereo not drawn) [Example 141, (9-Amino-6,11,11-trimethyl-1,2,5,6-tetrahydro-4H-2,6-methano-benzo[d]azocin-3-yl)-(3H-benzoimidazol-5-yl)-methanone]	59
CC1(C)[C@H]2Cc3c(O)cccc3[C@]1(C)CCN2C(=O)c1ccc(CN2CCOCC2)cc1 [Example 24, [(2R,6S)-10-Hydroxy-6,11,11-trimethyl-1,2,5,6-tetrahydro-4H-2,6-methano-benzo[d]azocin-3-yl]-(4-morpholin-4-ylmethyl-phenyl)-methanone]	134
C[C@@H]1[C@H]2Cc3ccc(C#N)cc3[C@]1(C)CCN2C(=O)c1ccc2nc[nH]c2c1 [Example 84, (2R,6R,11S)-3-(3H-Benzoimidazole-5-carbonyl)-6,11-dimethyl-1,2,3,4,5,6-hexahydro-2,6-methano-benzo[d]azocine-8-carbonitrile]	139

Same assay, conditions: 1 hour at 37° C., pH 6.0, NADPH 200 μM, cortisone 80 nM, inhibition relative to carbenoxolone signal, read-out: 11β-HSD IC50

SMILES	IC50 [nM]
COc1ccc2c(c1)C1CCN(C(=O)c3ccc4nc[nH]c4c3)C2C1 (stereo not drawn) [Example 99, (3H-Benzoimidazol-5-yl)-(4-methoxy-9-aza-tricyclo[6.3.1.0*2,7*]dodeca-2,4,6-trien-9-yl)-methanone]	285
